pKd: −log10 of the molar value. [invdT] = inverted (3'-3') thymidine
How the values were obtained:
PDGF BB = PDGF BB (Homo sapiens, UniProt P01127); assay: Binding of ARC124 to PDGF BB
PDGF AB = PDGF AB (Homo sapiens, UniProt P01127); assay: Binding of ARC124 to PDGF AB
HCT-116 tumor = settings: irinotecan 100 mg/kg plus Gleevec 50 mg/kg orally twice a day
Procedure: Each group was assigned to a treatment regimen as follows. […] Doses were adjusted for changing body weight twice per week and all mice were dosed with vehicle or aptamer at 10 ml of dosing solution per kg body weight given intraperitoneally. […] Groups 3, 10 and 11 were dosed with vehicle intraperitinoneally once per day from days 8-25. Groups 3, 5, 7, 8, and 9 were dosed on day 11, 18 and 25 with irintoecan (100 mg/kg, intraperitoneally). […] Group 11 was dosed on day 11 and 25 with irintoecan (100 mg/kg, intraperitoneally) and twice a day with imatinib at 50 mg/kg given orally on days 8-12 and 23-25.
The aptamer was allowed to come to room temperature for an hour before dosing. Unused material was stored at 4° C. for use the next day. Normal saline for the vehicle control was sterile filtered into sample vials and stored in the same manner as the aptamer dosing solutions. Aptamer and vehicle dosing solutions were coded so that the personnel dosing were blinded from their identity.

[1] = tested on: HT29 colon cancer xenograft; assay: HT29 colon cancer xenograft model; type: in vivo, Nu/Nu mice; settings: GLEEVEC 50 mg/kg orally BID Qd5 + irinotecan 150 mg/kg weekly vs irinotecan alone
[2] = tested on: LS174T colon cancer xenograft; settings: Monday through Friday
Text: Experimental overview. Human HT-29 or LS174T colon cancer xenotransplants were established in athymic nude mice (Nu/Nu mice, Charles River Labs, Wilmington, Mass.) by injecting mice with 1×10^7 HT29 cells (ATCC, Manassas, Va.), or 2×10^6 LS174T cells (ATCC Manassas, Va.) sub-cutaneously and allowing the tumors to grow for 5 days. On day 5, two dimensional measurements of the established tumors were taken using a digital caliper. Once tumor measurements were taken, the mice were randomized into groups such that the average tumor size was the same in each group. […]
A third experiment (Experiment 3) was designed to test ARC308/irinotecan and GLEEVEC™/irinotecan dosing regimens in a colon cancer xenotransplant model using human colon carcinoma cell line LS174T (ATCC). […] ARC308 was dosed via intraperitoneal delivery at 50 mg/kg once daily, and GLEEVEC™ was dosed at 50 mg/kg once daily, Monday through Friday. ARC308 prevents PDGF-BB from binding the PDGF receptor; this molecule has a 30K PEG attached. […] The results are statistically significant (two tailed students T-test).
An efficacy analysis of three treatment groups in this study is shown in Table 10 in terms of log cell kill and log cell kill net. Log cell kill is the log(base10) of the number of tumor cells before treatment divided by the number of cells after treatment. […] A fourth experiment (Experiment 4) was designed to further test ARC308/irinotecan dosing regimens in a colon cancer xenotransplant model using human colon carcinoma cell line LS174T (ATCC). […]

PDGF AB, sequence (P01127 82-190 limits assumed, other chains not shown): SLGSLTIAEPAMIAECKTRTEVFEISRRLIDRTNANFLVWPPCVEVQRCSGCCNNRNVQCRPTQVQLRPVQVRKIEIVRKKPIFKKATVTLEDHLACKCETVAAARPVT
PDGF BB, sequence (P01127 82-190 limits assumed): as the sequence (P01127 82-190 limits assumed, other chains not shown) above

| Compound | pKd (PDGF BB) | pKd (PDGF AB) | mice dead by day 17 (HCT-116 tumor) | efficacy of irinotecan (rate of tumor growth) [1] | tolerability of dosing regimen ([2]; Experiment 2: GLEEVEC 100 mg/kg once daily, P.O.) | efficacy of irinotecan (rate of tumor growth) ([2]; Experiment 3: GLEEVEC 50 mg/kg once daily, P.O + irinotecan) |
| --- | --- | --- | --- | --- | --- | --- |
| 5′ CACAGGCTACGGCACGTAGAGCATCACCATGATCCTGTG-3′InvdT (SEQ ID NO:11) (DNA, 3' [invdT], backbone not given here) [ARC124] | ~10.00 | ~10.00 |  |  |  |  |
| Cc1ccc(NC(=O)c2ccc(CN3CCN(C)CC3)cc2)cc1Nc1nccc(-c2cccnc2)n1 [GLEEVEC™, imatinib, reference compound] |  |  | 4 of 12 | enhanced the efficacy of irinotecan treatment | made the animals moribund | did not enhance the efficacy of Irinotecan |
